Molecular target: T1, human mPGES-1 (Homo sapiens, UniProt O14684)
T1 sequence (O14684 1-152): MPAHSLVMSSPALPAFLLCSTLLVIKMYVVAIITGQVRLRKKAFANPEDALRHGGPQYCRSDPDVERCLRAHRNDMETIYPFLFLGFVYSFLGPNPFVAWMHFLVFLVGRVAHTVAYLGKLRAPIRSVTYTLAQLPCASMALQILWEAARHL
Assay: Microsomal prostaglandin E synthase biochemical assay
Conditions: microsome preparation containing human mPGES-1; PGH2 10.8 μM, GSH 2.5 mM, pH 6.8; PGE2 by HTRF; average of at least n=2
Summary of the method: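 Human mPGES-1 microsomes at 2 μg/mL were pre-incubated 15 min with compound (60 μM to 0.002 μM) in 50 mM potassium phosphate pH 6.8 with 2.5 mM GSH. The reaction was started with 10.8 μM PGH2 and stopped after 1 minute with acidic ferric chloride/citrate. PGE2 was quantified by HTRF; IC50 is the mean of at least 2 runs.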

Row | SMILES | IC50 [nM]
1 | COc1cccc(-c2cccc(S(=O)(=O)Nc3ccccc3S(N)(=O)=O)c2)n1 [Example 162, 3-(6-Methoxypyridin-2-yl)-N-(2-sulfamoylphenyl)benzenesulfonamide] | 5700
2 | COc1ncc(-c2cccc(S(=O)(=O)Nc3ccccc3S(N)(=O)=O)c2)cn1 [Example 165, 3-(2-Methoxypyrimidin-5-yl)-N-(2-sulfamoylphenyl)benzenesulfonamide] | 2300
3 | Cc1ccncc1-c1cccc(S(=O)(=O)Nc2ccccc2S(N)(=O)=O)c1 [Example 166, 3-(4-Methylpyridin-3-yl)-N-(2-sulfamoylphenyl)benzenesulfonamide] | 4800
4 | COc1ncccc1-c1cccc(S(=O)(=O)Nc2ccccc2S(N)(=O)=O)c1 [Example 167, 3-(2-Methoxypyridin-3-yl)-N-(2-sulfamoylphenyl)benzenesulfonamide] | 3800
5 | NS(=O)(=O)c1ccccc1NS(=O)(=O)c1cccc(-c2cccc(CO)c2)c1 [Example 171, 2-[[3-[3-(Hydroxymethyl)phenyl]phenyl]sulfonylamino]benzenesulfonamide] | 1700
6 | NS(=O)(=O)c1ccccc1NS(=O)(=O)c1cccc(-c2ccc(CO)cc2)c1 [Example 172, 2-[[3-[4-(Hydroxymethyl)phenyl]phenyl]sulfonylamino]benzenesulfonamide] | 7300
7 | NS(=O)(=O)c1ccccc1NS(=O)(=O)c1ccc(-c2ccc(Cl)c(Cl)c2)cc1 [Example 173, 2-[[4-(3,4-Dichlorophenyl)phenyl]sulfonylamino]benzenesulfonamide] | 1500
8 | NS(=O)(=O)c1ccccc1NS(=O)(=O)c1ccc(Oc2ccc(Cl)cc2)cc1 [Example 175, 2-[[4-(4-Chlorophenoxy)phenyl]sulfonylamino]benzenesulfonamide] | 3700
9 | CNS(=O)(=O)c1ccc2c(c1)-c1cc(S(=O)(=O)Nc3ccccc3S(N)(=O)=O)ccc1S2(=O)=O [Example 177, N-Methyl-N′-(2-sulfamoylphenyl)dibenzo[b,d]thiophene-2,8-disulfonamide 5,5-dioxide] | 2200
10 | NS(=O)(=O)c1cc(F)c(F)cc1NS(=O)(=O)c1cccc(Cl)c1Cl [Example 178, 2,3-Dichloro-N-(4,5-difluoro-2-sulfamoylphenyl)benzenesulfonamide] | 2700
11 | CC(C)(O)C#Cc1ccc(CCS(=O)(=O)Nc2ccccc2S(N)(=O)=O)cc1 [Example 184, 2-(2-(4-(3-Hydroxy-3-methylbut-1-ynyl)phenyl)ethylsulfonamido)benzenesulfonamide] | 9600
12 | CC(C)(C)C#Cc1cccc(S(=O)(=O)Nc2ccccc2S(N)(=O)=O)c1 [Example 185, 3-(3,3-Dimethylbut-1-ynyl)-N-(2-sulfamoylphenyl)benzenesulfonamide] | 2500
13 | Cc1nc(-c2cccc(S(=O)(=O)Nc3ccccc3S(N)(=O)=O)c2)cs1 [Example 191, 3-(2-Methylthiazol-4-yl)-N-(2-sulfamoylphenyl)benzenesulfonamide] | 8300
14 | NS(=O)(=O)c1ccccc1NS(=O)(=O)/C=C/c1cccc(C(F)(F)F)c1 [Example 192, (E)-2-(2-(3-(Trifluoromethyl)phenyl)vinylsulfonamido)benzenesulfonamide] | 3200
15 | NS(=O)(=O)c1ccccc1NS(=O)(=O)/C=C/c1ccccc1F [Example 193, (E)-2-(2-(2-Fluorophenyl)vinylsulfonamido)benzenesulfonamide] | 7900
16 | NS(=O)(=O)c1cc(Cl)ccc1NS(=O)(=O)c1cccc(Cl)c1Cl [Example 195, 2,3-Dichloro-N-(4-chloro-2-sulfamoylphenyl)benzenesulfonamide] | 5500
17 | NS(=O)(=O)c1c(F)cc(F)cc1NS(=O)(=O)c1cccc(Cl)c1Cl [Example 196, 2,3-Dichloro-N-(3,5-difluoro-2-sulfamoylphenyl)benzenesulfonamide] | 1900
18 | N#Cc1ccc(NS(=O)(=O)CCc2ccc(Cl)c(Cl)c2)c(S(N)(=O)=O)c1 [Example 199, 5-Cyano-2-(2-(3,4-dichlorophenyl)ethylsulfonamido)benzenesulfonamide] | 2500
19 | NS(=O)(=O)c1cc(Cl)ccc1NS(=O)(=O)CCc1ccc(Cl)c(Cl)c1 [Example 202, 5-Chloro-2-(2-(3,4-dichlorophenyl)ethylsulfonamido)benzenesulfonamide] | 2900
20 | COc1ncc(-c2cccc(S(=O)(=O)Nc3ccncc3S(N)(=O)=O)c2)cc1Cl [Example 203, 4-(3-(5-Chloro-6-methoxypyridin-3-yl)phenylsulfonamido)pyridine-3-sulfonamide] | 2100

Stronger by IC50, values ahead:

Row | IC50 [nM] | SMILES
21 | 1300 | NS(=O)(=O)c1ccccc1NS(=O)(=O)c1ccc(Cl)c(Cl)c1 [Example 161, 3,4-Dichloro-N-(2-sulfamoylphenyl)benzenesulfonamide]
22 | 460 | NS(=O)(=O)c1ccccc1NS(=O)(=O)c1ccc(OCc2cnc(Cl)s2)cc1 [Example 163, 2-[[4-[(2-Chlorol,3-thiazol-5-yl)methoxy]phenyl]sulfonylamino]benzenesulfonamide]
23 | 190 | COc1ncc(-c2cccc(S(=O)(=O)Nc3ccccc3S(N)(=O)=O)c2)cc1F [Example 164, 3-(5-Fluoro-6-methoxy-pyridin-3-yl)-N-(2-sulfamoylphenyl)benzenesulfonamide]
24 | 630 | NS(=O)(=O)c1ccccc1NS(=O)(=O)c1cccc(-c2cncc(Cl)c2)c1 [Example 168, 2-[[3-(5-Chloropyridin-3-yl)phenyl]sulfonylamino]benzenesulfonamide]
25 | 22 | COc1ncc(-c2cccc(S(=O)(=O)Nc3ccccc3S(N)(=O)=O)c2)cc1Cl [Example 169, 3-(5-Chloro-6-methoxy-pyridin-3-yl)-N-(2-sulfamoylphenyl)benzenesulfonamide]
26 | 290 | CN(C)c1ccc(-c2cccc(S(=O)(=O)Nc3ccccc3S(N)(=O)=O)c2)cn1 [Example 170, 3-(6-Dimethylaminopyridin-3-yl)-N-(2-sulfamoylphenyl)benzenesulfonamide]
27 | 220 | NS(=O)(=O)c1ccccc1NS(=O)(=O)c1cccc(-c2ccc(Cl)c(Cl)c2)c1 [Example 174, 2-[[3-(3,4-Dichlorophenyl)phenyl]sulfonylamino]benzenesulfonamide]
28 | 900 | Cc1cc(NC(=O)Nc2ccc(Cl)cc2)ccc1S(=O)(=O)Nc1ccccc1S(N)(=O)=O [Example 176, 3-(4-Chlorophenyl)-1-[3-methyl-4-[(2-sulfamoylphenyl)sulfamoyl]phenyl]urea]
29 | 1400 | N#Cc1ccc(S(N)(=O)=O)c(NS(=O)(=O)CCc2ccc(Cl)c(Cl)c2)c1 [Example 180, 4-Cyano-2-(2-(3,4-dichlorophenyl)ethylsulfonamido)benzenesulfonamide]
30 | 370 | COc1cc(Cl)ccc1CCS(=O)(=O)Nc1cc(C#N)ccc1S(N)(=O)=O [Example 181, 2-(2-(4-Chloro-2-methoxyphenyl)ethylsulfonamido)-4-cyanobenzenesulfonamide]
31 | 520 | COc1cc(Cl)ccc1CCS(=O)(=O)Nc1ccc(C#N)cc1S(N)(=O)=O [Example 182, 2-(2-(4-Chloro-2-methoxyphenyl)ethylsulfonamido)-5-cyanobenzenesulfonamide]
32 | 81 | CC(C)(C)C#Cc1ccc(CCS(=O)(=O)Nc2ccccc2S(N)(=O)=O)cc1 [Example 183, 2-(2-(4-(3,3-dimethylbut-1-ynyl)phenyl)ethylsulfonamido)benzenesulfonamide]
33 | 250 | COc1cc(Cl)ccc1CCS(=O)(=O)Nc1ccccc1S(N)(=O)=O [Example 186, 2-(2-(4-Chloro-2-methoxyphenyl)ethylsulfonamido)benzenesulfonamide]
34 | 680 | CC(C)(C)C#Cc1ccc(CCS(=O)(=O)Nc2ccccc2S(N)(=O)=O)cn1 [Example 187, 2-(2-(6-(3,3-Dimethylbut-1-ynyl)pyridin-3-yl)ethylsulfonamido)benzenesulfonamide]
35 | 270 | NS(=O)(=O)c1ccccc1NS(=O)(=O)CCc1ccc(C#CC2CCCCC2)nc1 [Example 188, 2-(2-(6-(cyclohexylethynyl)pyridin-3-yl)ethylsulfonamido)benzenesulfonamide]
36 | 1400 | Cc1ccc(NS(=O)(=O)CCc2ccc(Br)cc2)c(S(N)(=O)=O)c1 [Example 189, 2-(2-(4-Bromophenyl)ethylsulfonamido)-5-methylbenzenesulfonamide]
37 | 680 | Cc1ccc(NS(=O)(=O)/C=C/c2ccc(Br)cc2)c(S(N)(=O)=O)c1 [Example 190, (E)-2-(2-(4-Bromophenyl)vinylsulfonamido)-5-methylbenzenesulfonamide]
38 | 1000 | COc1cc(Cl)ccc1CCS(=O)(=O)Nc1ccc(Cl)cc1S(N)(=O)=O [Example 194, 5-Chloro-2-(2-(4-chloro-2-methoxyphenyl)ethylsulfonamido)benzenesulfonamide]
39 | 640 | NS(=O)(=O)c1c(F)cc(F)cc1NS(=O)(=O)CCc1ccc(Cl)c(Cl)c1 [Example 197, 2-(2-(3,4-Dichlorophenyl)ethylsulfonamido)-4,6-difluorobenzenesulfonamide]
40 | 290 | COc1cc(Cl)ccc1CCS(=O)(=O)Nc1cc(F)cc(F)c1S(N)(=O)=O [Example 198, 2-(2-(4-Chloro-2-methoxyphenyl)ethylsulfonamido)-4,6-difluorobenzenesulfonamide]
41 | 1400 | Cc1ccc(S(N)(=O)=O)c(NS(=O)(=O)CCc2ccc(Cl)c(Cl)c2)c1 [Example 200]
42 | 720 | COc1cc(Cl)ccc1CCS(=O)(=O)Nc1cc(C)ccc1S(N)(=O)=O [Example 201, 2-(2-(4-Chloro-2-methoxyphenyl)ethylsulfonamido)-4-methylbenzenesulfonamide]
